In PubChem BioAssay AID330 (DTP/NCI, 2004):
Values joined by “and” are separate entries in the source; they are usually repeats but may differ in a detail not shown here. Equal entries are not always repeated. Toxic doses and inconclusive results are not listed. How the source made its calls: active means survival T/C of 150% or more; inactive means T/C below 125% in these data.

System: P388 leukemia ip, CD2F1 mice, survival T/C
Experiment: NCI In Vivo Anticancer Drug Screen. Data for tumor model P388 Leukemia (intraperitoneal) in CD2F1 (CDF1) mice
Settings: endpoint: median survival time, higher = longer survival
Outline: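 Mice carrying the transplanted tumor received test compound or vehicle. Survival was recorded in each group, and the value is the treated-group measurement divided by that of the vehicle-treated control group.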

[1] = dose: 50.0 mg/kg/injection, schedule: Q01DX005 (ip), vehicle: saline with Tween-80
[2] = dose: 100.0 mg/kg/injection, schedule: Q01DX005 (ip), vehicle: saline with Tween-80
[3] = dose: 200.0 mg/kg/injection, schedule: Q01DX005 (ip), vehicle: saline with Tween-80
[4] = dose: 60.0 mg/kg/injection, schedule: Q01DX005 (ip), vehicle: saline with Tween-80
[5] = dose: 120.0 mg/kg/injection, schedule: Q01DX005 (ip), vehicle: saline with Tween-80
[6] = dose: 50.0 mg/kg/injection, schedule: Q01DX005 (ip), vehicle: Klucel (hydroxypropylcellulose) (HPC)
[7] = dose: 100.0 mg/kg/injection, schedule: Q01DX005 (ip), vehicle: Klucel (hydroxypropylcellulose) (HPC)
[8] = dose: 12.5 mg/kg/injection, schedule: Q01DX009 (ip), vehicle: saline with Tween-80
[9] = dose: 25.0 mg/kg/injection, schedule: Q01DX009 (ip), vehicle: saline with Tween-80
[10] = dose: 50.0 mg/kg/injection, schedule: Q01DX009 (ip), vehicle: saline with Tween-80
[11] = dose: 60.0 mg/kg/injection, schedule: Q01DX005 (ip), vehicle: Klucel (hydroxypropylcellulose) (HPC)
[12] = dose: 100.0 mg/kg/injection, schedule: Q04DX003 (ip), vehicle: saline
[13] = dose: 200.0 mg/kg/injection, schedule: Q04DX003 (ip), vehicle: saline
[14] = dose: 100.0 mg/kg/injection, schedule: Q01DX009 (ip), vehicle: saline with Tween-80
[15] = dose: 200.0 mg/kg/injection, schedule: Q01DX005 (ip), vehicle: Klucel (hydroxypropylcellulose) (HPC)

Measured: T/C

CC1C(c2ccccc2)OCN1C (stereo not given)
inactive: dose: 12.5 mg/kg/injection, schedule: Q01DX005 (ip), vehicle: saline 110 % of control and 88 % of control | dose: 25.0 mg/kg/injection, schedule: Q01DX005 (ip), vehicle: saline 100 % of control and 116 % of control | dose: 50.0 mg/kg/injection, schedule: Q01DX005 (ip), vehicle: saline 110 % of control [middle of 5 runs] | dose: 100.0 mg/kg/injection, schedule: Q01DX005 (ip), vehicle: saline 118 % of control and 109 % of control | dose: 200.0 mg/kg/injection, schedule: Q01DX005 (ip), vehicle: saline 116 % of control

N#CN1C2CCC1CC(O)(c1ccccc1)C2 (stereo not given)
inactive: [1] 104 % of control and 99 % of control | [2] 102 % of control | [3] 103 % of control

O=C(NCCCCCCCCNC(=O)C(Cl)Cl)C(Cl)Cl
inactive: [1] 106 % of control | [2] 99 % of control | [3] 92 % of control

COc1ccc(CCNC(=O)C2CC3CCCCN3C2C)cc1OC (stereo not given)
inactive: [4] 99 % of control | [5] 95 % of control | dose: 240.0 mg/kg/injection, schedule: Q01DX005 (ip), vehicle: saline with Tween-80 94 % of control

CCCCn1cnc2c(=S)nc(N)[nH]c21
inactive: dose: 25.0 mg/kg/injection, schedule: Q04DX003 (ip), vehicle: saline with Tween-80 109 % of control | dose: 50.0 mg/kg/injection, schedule: Q04DX003 (ip), vehicle: saline with Tween-80 118 % of control | dose: 400.0 mg/kg/injection, schedule: Q04DX003 (ip), vehicle: saline with Tween-80 90 % of control

CCCNc1nc(C)nc2[nH]cc(C)c12
inactive: [6] 100 % of control | [7] 102 % of control

NC(=O)C1=Cc2cc(Cl)ccc2OC1
inactive: dose: 6.25 mg/kg/injection, schedule: Q01DX009 (ip), vehicle: saline with Tween-80 97 % of control | [8] 102 % of control | [9] 92 % of control | [10] 106 % of control

O=C(C[n+]1ccccc1)N/N=C/c1cccc([N+](=O)[O-])c1
inactive: [8] 102 % of control | [9] 99 % of control | [10] 103 % of control

Cc1ccc(S(=O)(=O)C2(NC(=O)C3CC3)CC2)cc1
inactive: [11] 89 % of control | dose: 120.0 mg/kg/injection, schedule: Q01DX005 (ip), vehicle: Klucel (hydroxypropylcellulose) (HPC) 89 % of control

O=[N+]([O-])c1ccc([Se]c2ncccn2)c([N+](=O)[O-])c1
inactive: dose: 25.0 mg/kg/injection, schedule: Q04DX003 (ip), vehicle: saline 104 % of control | dose: 50.0 mg/kg/injection, schedule: Q04DX003 (ip), vehicle: saline 104 % of control | [12] 100 % of control and 117 % of control | [13] 100 % of control

CCCN(CCC)C(=O)CN(C=O)c1ncc([N+](=O)[O-])s1
inactive: dose: 25.0 mg/kg/injection, schedule: Q01DX001 (ip), vehicle: saline 104 % of control | dose: 50.0 mg/kg/injection, schedule: Q01DX001 (ip), vehicle: saline 108 % of control | dose: 100.0 mg/kg/injection, schedule: Q01DX001 (ip), vehicle: saline 107 % of control

COc1cc(OC)c(NC(=O)Nc2cc(Cl)ccc2Cl)cc1Cl
inactive: [10] 94 % of control | [14] 91 % of control

O=c1oc2ccc(Br)cc2cc1-n1nnc2cc([N+](=O)[O-])ccc21
inactive: [1] 90 % of control | [2] 89 % of control | [3] 89 % of control

O=C(NC1(Sc2ccccc2)CC1)c1ccc(Cl)cc1
inactive: dose: 15.0 mg/kg/injection, schedule: Q01DX005 (ip), vehicle: Klucel (hydroxypropylcellulose) (HPC) 98 % of control | dose: 30.0 mg/kg/injection, schedule: Q01DX005 (ip), vehicle: Klucel (hydroxypropylcellulose) (HPC) 88 % of control | [11] 88 % of control

O=CNNC(=O)c1cnccn1
inactive: dose: 89.0 mg/kg/injection, schedule: Q01DX009 (ip), vehicle: water 109 % of control | dose: 133.0 mg/kg/injection, schedule: Q01DX009 (ip), vehicle: water 100 % of control | dose: 200.0 mg/kg/injection, schedule: Q01DX009 (ip), vehicle: water 118 % of control

[CH3][Sn]1([Cl])[O]CCNCC[O]1
inactive: dose: 25.0 mg/kg/injection, schedule: Q01DX005 (ip), vehicle: Klucel (hydroxypropylcellulose) (HPC) 102 % of control and 97 % of control | [6] 98 % of control and 100 % of control and 92 % of control | [7] 101 % of control and 109 % of control and 94 % of control | [15] 102 % of control and 103 % of control

COc1cc(O)c2c(=O)c3c(O)c(OC4OC(COC5OC(C)C(O)C(O)C5O)C(O)C(O)C4O)ccc3oc2c1 (stereo not given)
inactive: dose: 1.5 mg/kg/injection, schedule: Q01DX009 (ip), vehicle: saline 107 % of control | dose: 3.0 mg/kg/injection, schedule: Q01DX009 (ip), vehicle: saline 103 % of control | dose: 6.0 mg/kg/injection, schedule: Q01DX009 (ip), vehicle: saline 100 % of control | dose: 12.0 mg/kg/injection, schedule: Q01DX009 (ip), vehicle: saline 99 % of control

COc1ccc(-c2cc(=O)c3c(O)c(OC)c(OC)cc3o2)cc1O
inactive: dose: 18.8 mg/kg/injection, schedule: Q04DX002 (ip), vehicle: saline with Tween-80 96 % of control | dose: 37.5 mg/kg/injection, schedule: Q04DX002 (ip), vehicle: saline with Tween-80 102 % of control | dose: 75.0 mg/kg/injection, schedule: Q04DX002 (ip), vehicle: saline with Tween-80 93 % of control | dose: 150.0 mg/kg/injection, schedule: Q04DX002 (ip), vehicle: saline with Tween-80 96 % of control

O=S(=O)(C1=NOC(c2ccccc2)C1)c1ccccc1 (stereo not given)
inactive: [6] 99 % of control | [7] 95 % of control | [15] 93 % of control

Cc1cnc(C)c2ccccc12
inactive: [10] 109 % of control | [14] 117 % of control

COc1ccc(C(C)c2cc3c(cc2O)OCO3)cc1 (stereo not given)
inactive: dose: 50.0 mg/kg/injection, schedule: Q01DX005 (ip), vehicle: distilled water + Tween-80 105 % of control | dose: 100.0 mg/kg/injection, schedule: Q01DX005 (ip), vehicle: distilled water + Tween-80 99 % of control | dose: 200.0 mg/kg/injection, schedule: Q01DX005 (ip), vehicle: distilled water + Tween-80 108 % of control

CCOC(=O)Cc1oc2c(C(C)=O)c(O)c(C)c(O)c2c1C
inactive: [6] 88 % of control | [7] 89 % of control | [15] 87 % of control

CCN(CC)C(C)(C)C(=O)/C=C/c1ccc(C)cc1
inactive: [4] 107 % of control | [5] 103 % of control

COc1cc2c3c4c(ccc3c1OC)CCCN4CC2
inactive: dose: 50.0 mg/kg/injection, schedule: Q01DX005 (ip), vehicle: Klucel + Tween-80 99 % of control | dose: 100.0 mg/kg/injection, schedule: Q01DX005 (ip), vehicle: Klucel + Tween-80 97 % of control

O=C(O)CCCOc1ccc(Cl)cc1Cl
inactive: [12] 109 % of control | [13] 100 % of control | dose: 400.0 mg/kg/injection, schedule: Q04DX003 (ip), vehicle: saline 100 % of control

CC1CCC2(C)CCC3(C)C4=CCC5C(C)(C)C(O)CCC5(C)C4CCC3(C)C2C1C (stereo not given)
inactive: dose: 200.0 mg/kg/injection, schedule: Q04DX003 (ip), vehicle: other 95 % of control | dose: 400.0 mg/kg/injection, schedule: Q04DX003 (ip), vehicle: other 100 % of control

Cc1c2ccncc2c(CN(CCO)CCO)c2c3ccccc3n(C)c12
inactive: dose: 5.0 mg/kg/injection, schedule: Q01DX005 (ip), vehicle: saline 103 % of control | dose: 10.0 mg/kg/injection, schedule: Q01DX005 (ip), vehicle: saline 100 % of control | dose: 20.0 mg/kg/injection, schedule: Q01DX005 (ip), vehicle: saline 90 % of control

CC(SCCCCCCCCCCCCSC(C)C(=O)O)C(=O)O (stereo not given)
inactive: [1] 106 % of control | [2] 97 % of control | [3] 100 % of control

O=C1C=C(n2ccccc2=O)CCC1
inactive: dose: 60.0 mg/kg/injection, schedule: Q01DX005 (ip), vehicle: saline 93 % of control | dose: 120.0 mg/kg/injection, schedule: Q01DX005 (ip), vehicle: saline 93 % of control | dose: 240.0 mg/kg/injection, schedule: Q01DX005 (ip), vehicle: saline 102 % of control

ClC(Cl)(Cl)C1OCCOCCO1
inactive: [14] 109 % of control | dose: 200.0 mg/kg/injection, schedule: Q01DX009 (ip), vehicle: saline with Tween-80 100 % of control | dose: 400.0 mg/kg/injection, schedule: Q01DX009 (ip), vehicle: saline with Tween-80 116 % of control
